Format in all cases: physicochemical
A short description of data set [1]: Oxidation potential (Ep) of cyanine dyes, saturated calomel electrode as reference. The settings on record: saturated calomel electrode (SCE) as reference electrode.
A short description of data set [2]: Change of absorbance at maximum absorption wavelength after reaction with reactive oxygen species (Example 2). The settings on record: 10 μM dye in 0.1 M phosphate buffer; all reactive oxygen species (hydroxyl radical, peroxynitrite, hypochlorite ion, superoxide anion); FIG. 2. As to the method: (§1) Cy5, Cy7, Compound 2 (cyanine compound constituting the second cyanine compound residue) and Compound 3 (cyanine compound constituting the first cyanine compound residue), the latter two of which were obtained above, were reacted with hydroxyl radical, peroxynitrite, hypochlorite ion, and superoxide anion, and change of absorbance at the maximum absorption wavelength was measured. For the measurement, 10 μM solutions of Cy5, Cy7, Compound 2, and Compound 3 in 0.1 M phosphate buffer were prepared, and the measurement was performed with the prepared solutions under the following conditions.
Hydrogen peroxide and iron(II) perchlorate were added to final concentrations of 1 mM and 50 μM, respectively.
Peroxynitrite was added to a final concentration of 10 μM.
Hypochlorite ions were added to a final concentration of 10 μM.
(§2) Xanthine oxidase and xanthine were added to final concentrations of 4 mU and 33 μM, respectively.
(§3) In the graph, the test results for those reactive oxygen species are indicated in the order of Cy5, Compound 2, Cy7, and Compound 3 from the left.

Data set [3] in a line: Change of absorbance at maximum absorption wavelength after reaction with superoxide anion (Example 2). As to conditions: 10 μM dye in 0.1 M phosphate buffer; xanthine oxidase 4 mU, xanthine 33 μM; FIG. 2. As to the method:
as §1, §2, §3

Turning to `CC1(C)C(/C=C/C=C/C=C2/N(CCC(=O)O)c3ccc(S(=O)(=O)O)cc3C2(C)C)=[N+](CCC(=O)O)c2ccc(S(=O)(=O)O)cc21` [Compound 2], the Ep in data set [1] is recorded as 0.658 V vs SCE. Also, the “Decrease of absorbance at maximum absorption wavelength upon addition of reactive oxygen species” value in data set [2] is given as “the smallest decrease of absorbance”. Besides, the “Decrease of absorbance at maximum absorption wavelength for superoxide anion” value in data set [3] is “no decrease of absorbance”.
Consider `CCN1C(=CC=CC=CC=CC2=[N+](CCCCCC(=O)O)c3ccc(S(=O)(=O)O)cc3C2(C)C)C(C)(C)c2cc(S(=O)(=O)[O-])ccc21` [Cy7, reference compound], for which the Ep in data set [1] is recorded as 0.476 V vs SCE. Besides, the “Decrease of absorbance at maximum absorption wavelength upon addition of reactive oxygen species” value in data set [2] was “larger decrease of absorbance than did Cy5”.
The like results for `CN1/C(=C/C=C2\CCCC(/C=C/C3=[N+](C)c4ccccc4C3(C)C)=C2SCCC(=O)O)C(C)(C)c2ccccc21` [Compound 3] were, in that order, 0.333 V vs SCE and “larger decrease of absorbance than did Cy7”.
On to Cy5 [reference compound], for which the Ep in data set [1] amounted to 0.516 V vs SCE.

Source of the values: patent US20110111515A1, “REAGENT FOR MEASUREMENT OF REACTIVE OXYGEN” (THE UNIVERSITY OF TOKYO, priority 2008, published 2011).
